TGI and GI50 data for 29 molecules are collected here from PubChem BioAssay (NCI).

Common to all, as to assay: inhibition of tumour cell growth, NCI panel, 48 h
Assay [1] relates to SK-MEL-28 melanoma.
Assay [2] has as its system OVCAR-5 ovarian.
Assay [3] deals with NCI-H226 lung.
The test system of assay [4] is CCRF-CEM leukemia.
For assay [5], the system named is TK-10 renal.
For assay [6], the system named is NCI-H522 lung.
The test system of assay [7] is K-562 leukemia.
Assay [8] relates to HCT-116 colon.
Assay [9] concerns HS 578T breast.
Assay [10] has as its system T-47D breast.

Where “and” joins values, the source holds several entries; their conditions need not be identical. Equal values may be shown once.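 Test compounds were applied to cells in 96-well plates for 48 hours at 5 doses. GI50: concentration for 50% inhibition of growth. TGI is the concentration that stops growth completely.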

For the molecule `S=c1[nH]c(=S)c2sc(=S)n(-c3ccccc3)c2[nH]1`, the TGI in [1], in assay [2], in [3], in assay [4], in assay [5] and in [6] was greater than 100 µM throughout. Also, the TGI in assay [7] and in assay [8] was greater than 100 µM each time.
Regarding `CN(NC(=O)CC(=O)NN(C)C(=S)c1ccccc1)C(=S)c1ccccc1`, the GI50 in assay [1] is greater than 72.8 µM; in assay [9], 19.2 µM; in assay [4], 64.7 µM; in assay [6], 69.9 µM; in [7] it was 40.8 µM. Moreover, the TGI in assay [1], in assay [2], in assay [3], in [9], in assay [4] and in assay [5] was greater than 100 µM in each case. Also, the TGI in assay [6], in assay [7] and in [8] was greater than 100 µM each time.
As for `c1nc2cscc2c2cscc12`, the TGI in assay [1], in assay [2], in assay [3], in assay [4], in assay [5] and in [6] was greater than 100 µM throughout. The TGI in assay [7] and in [8] was greater than 100 µM each time.
On to `CCOc1cc2c(cnc3c4cc(OC)c(OC)cc4ccc23)cc1OC`, for which the TGI in [1], in assay [2], in [4], in assay [5], in [6] and in assay [7] was greater than 100 µM throughout. The TGI in assay [8] is greater than 100 µM.
On to `N#CC1=C(N)N=C(N2CCCCC2)C(C#N)C12Nc1ccccc1S2` (stereo unspecified), for which the GI50 in [1] is 26.6 µM; in assay [5], 29.6 µM; in assay [6] it was 22.2 µM; in assay [10] it was 35 µM; in assay [7], greater than 100 µM; in assay [8], 23 µM. Further, the TGI in assay [1] is greater than 100 µM; in assay [5], greater than 100 µM; in assay [6], 56.8 µM; in assay [10], greater than 100 µM; in assay [7] it was greater than 100 µM; in assay [8], greater than 100 µM.
Take `COC(=O)NC/C=C\c1nc(CC/C=C\C(=O)OC2CC3CC(=O)O[C@H](/C=C/CC(C)C)C[C@H]4CCC(C)C(C[C@H](OC)CC(C2)O3)O4)co1` (stereo partly specified): the GI50 in assay [1] was 12.1 µM; in [2], 0.877 µM; in assay [3] it was 12.9 µM; in assay [9] it was 18.2 µM; in assay [5], 1.55 µM; in assay [10] it was 39.1 µM. In addition, the GI50 in assay [7] and in assay [8] was less than 0.01 µM each time. In addition, the TGI in assay [1] was greater than 100 µM; in assay [2], greater than 100 µM; in assay [3], greater than 100 µM; in assay [9] it was greater than 100 µM; in [5], 74 µM; in [10], greater than 100 µM. In addition, the TGI in assay [7] stood at 20.3 µM; in assay [8], 37.5 µM.
As to `N#CCc1ccc(C(C#N)/C(CCCC(=O)Nc2cccc([N+](=O)[O-])c2)=N\NC(=O)NN)cc1` (stereo unspecified), the TGI in [1], in assay [2], in assay [3], in [4], in assay [5] and in assay [6] was greater than 100 µM each time. Moreover, the TGI in [7] and in assay [8] was greater than 100 µM each time.
On to `NCCCN(CCCN)CCCNCc1c2ccccc2c(CNCCCN(CCCN)CCCN)c2ccccc12`, for which the TGI is 21.9 µM in assay [1]; greater than 100 µM in [2]; greater than 100 µM in assay [3]; greater than 100 µM in [4]; 23.1 µM in assay [5]; 26.1 µM in assay [6]. Also, the TGI in assay [7] was greater than 100 µM; in [8] it was 47.9 µM.
In the case of `O=C(O)c1c2c(c(C(=O)O)c3ccccc13)-c1ccccc1-2`, the TGI in assay [1], in assay [2], in assay [3], in assay [4], in assay [5] and in [6] was greater than 100 µM throughout. The TGI in assay [7] and in assay [8] was greater than 100 µM throughout.
Take `CC(=O)OCSc1ncnc2c1ncn2CN1CCOCC1`: the TGI in [1], in [2], in assay [3], in assay [4], in assay [5] and in [6] was greater than 100 µM each time. Further, the TGI in assay [7] and in assay [8] was greater than 100 µM throughout.
`Nc1ccc(C(=O)c2ccc(N)c(Br)c2)cc1Br`: the GI50 in assay [1] is 1.09 µM; in assay [2], 0.701 µM; in assay [3], 4.27 µM; in [9], 0.345 µM; in assay [4], 0.483 µM; in [5] it was 0.567 µM. The GI50 in assay [6] is 0.256 µM; in assay [7], 0.271 µM; in [8] it was 0.461 µM. Also, the TGI in assay [1] was greater than 100 µM; in assay [2] it was greater than 100 µM; in assay [3] it was greater than 61.5 µM; in assay [4], greater than 100 µM; in [5] it was 21.5 µM; in [6] it was 0.623 µM. Further, the TGI in assay [7] amounted to 22.2 µM; in [8], 11.6 µM.
`CC(C)=CC(=O)Oc1ccc([N+](=O)[O-])cc1`: the TGI in assay [2] is greater than 100 µM; in assay [3] it was greater than 100 µM; in assay [4], greater than 100 µM; in assay [5], greater than 100 µM; in assay [6] it was 14.8 µM; in assay [7], greater than 100 µM. Also, the TGI in assay [8] is greater than 100 µM.
On to `Cc1cccc(C)c1NC(=O)CCCC(=O)CC(=O)/C=C/c1ccccc1`, for which the TGI in [1], in assay [2], in [4], in assay [5], in assay [6] and in assay [7] was greater than 100 µM in each case. The same molecule gave a TGI in [8] greater than 100 µM.
As to `C1CNCCNCCNCCN1`, the TGI in assay [1], in assay [2], in [3], in assay [4], in [5] and in assay [6] was greater than 100 µM each time. The TGI in assay [7] and in assay [8] was greater than 100 µM throughout.
Regarding `COc1ccc(C2S/C(=C\c3cc(OC)c(OC)c(OC)c3)C(=O)N2NC(=O)Cc2ccccc2)cc1` (stereo unspecified), the TGI in assay [1], in [2], in assay [3], in assay [4], in assay [5] and in [6] was greater than 100 µM each time. The TGI in assay [7] and in assay [8] was greater than 100 µM throughout.
On to `N#CC1=C(N)OC2=C(COc3ccc(F)cc32)C1c1ccc(Cl)cc1` (stereo unspecified), for which the GI50 was 41.6 µM in [2]; 55.5 µM in assay [4]; 43.1 µM in [5]; 38.2 µM in [6]; greater than 100 µM in [10]; 27.3 µM in assay [7]. The GI50 in assay [8] was 36.3 µM. Also, the TGI is greater than 100 µM in [2]; greater than 100 µM in [4]; greater than 100 µM in assay [5]; 93.6 µM in assay [6]; greater than 100 µM in [10]; 82 µM in assay [7]. Further, the TGI in assay [8] is greater than 100 µM.
On to `CC(=O)NC1=C(Nc2ccc(C)cc2)C(=O)c2ccccc2C1=O`, for which the TGI is 39.1 µM in assay [1]; 27.4 µM in assay [2]; 42.5 µM in assay [3]; 58.4 µM in assay [4]; greater than 75 µM in assay [5]; greater than 75 µM in assay [7]. In addition, the TGI in assay [8] is 48.5 µM.
With `Clc1ccc(-n2nnc(C3=NCCCN3)c2-c2ccccc2)cc1`, the TGI in assay [1], in assay [2], in assay [3], in [4], in assay [5] and in assay [6] was greater than 100 µM throughout. The TGI in assay [7] and in assay [8] was greater than 100 µM each time.
Consider `COc1cc2c(c(OC)c1OC)-c1ccc(SC)c(=O)cc1[C@@H](NC(=O)c1ccc(OC(C)=O)cc1)CC2`, for which the GI50 in assay [1] was 15 µM; in assay [5] it was 0.0113 µM. Moreover, the TGI in assay [1] was 60 µM; in assay [2], 65.5 µM; in assay [3], 0.0528 µM; in assay [4] it was greater than 100 µM; in assay [5], 33.4 µM; in [7], 6.03 µM. For the same molecule, the TGI in assay [8] was 0.0514 µM and 0.015 µM.
For the molecule `CN(C)CC(/C(Cc1ccccc1)=N\NC(=O)c1ccncc1)c1ccccc1` (stereo unspecified), the TGI in assay [1], in assay [2], in assay [3], in [4], in assay [5] and in assay [6] was greater than 100 µM in each case. In assay [7], this molecule had a TGI greater than 100 µM.
`Cc1cc(O)c(C(=O)CC2(O)C(=O)Nc3c(Cl)cc(Cl)cc32)c(=O)o1` (stereo unspecified): the TGI in assay [1], in assay [2], in assay [3], in assay [4], in [5] and in assay [6] was greater than 100 µM each time. For the same molecule, the TGI in assay [7] and in assay [8] was greater than 100 µM each time.
For the molecule `CC(=O)OCC1OC(OC2CC3C(C)(C)C(OC(C)=O)CC[C@]3(C)C3CCC45CC4(CC[C@H]5C(C)CC(O)[C@@H](O)C(C)(C)O)[C@]23C)C(O)C(O)C1O` (stereo partly specified), the GI50 is 5.21 µM in assay [1]; 14.6 µM in assay [2]; 4.07 µM in assay [4]; 13.6 µM in assay [5]; 3.47 µM in [7]. In addition, the TGI in assay [1] was 13.7 µM and 17.8 µM; in assay [2], 13.9 µM and 27.9 µM; in assay [3] it was 13.3 µM; in assay [4], 14.8 µM and 15.4 µM; in assay [5], 14 µM and 26.5 µM; in [6], 7.17 µM and 7.74 µM. The TGI in assay [7] is 13.8 µM and 18.7 µM; in assay [8], 13.8 µM and 21.7 µM.
On to `Cn1nc(-c2ccccc2)c(N=[N+]=[N-])cc1=O`, for which the TGI in [1], in assay [2], in [3], in assay [4], in assay [5] and in assay [6] was greater than 100 µM throughout. Besides, the TGI in [7] and in assay [8] was greater than 100 µM in each case.
In the case of `COC1/C(=C\C(=O)OC(C)(C)C)c2ccccc2N1C(C)=O` (stereo unspecified), the TGI in assay [1], in assay [4], in assay [7] and in [8] was greater than 100 µM each time.
In the case of `O=C(CNC(=O)OCc1ccccc1)Oc1ccccc1`, the TGI in assay [1], in assay [2], in assay [3], in assay [4], in [5] and in [6] was greater than 100 µM in each case. Moreover, the TGI in assay [7] and in [8] was greater than 100 µM each time.
For `COc1ccc(C(=O)C(c2ccc(OC)cc2)C2(O)C(=O)Nc3c(C)cc(Cl)cc32)cc1` (stereo unspecified), the TGI in assay [1] is greater than 100 µM; in assay [2] it was greater than 100 µM; in assay [3], greater than 100 µM; in [4], 47.7 µM; in assay [5], greater than 100 µM; in assay [6] it was greater than 100 µM. Moreover, the TGI in [7] and in [8] was greater than 100 µM each time.
As to `CC1(CO)OC1COCc1ccccc1` (stereo unspecified), the TGI in assay [2], in assay [3], in [4] and in assay [7] was greater than 100 µM each time.
With `O=C(Nc1ccc(-n2cc(-c3ccncc3)c(-c3ccc(Cl)c(O)c3)n2)cc1)Nc1cc(C(F)(F)F)cc(C(F)(F)F)c1`, the GI50 in assay [1] is 2.01 µM; in [2] it was 2.26 µM; in assay [3] it was 2.45 µM; in [9] it was 2.04 µM; in [5], 3.05 µM; in assay [10] it was 1.85 µM. In addition, in assay [8], the GI50 is 1.61 µM. Also, the TGI in assay [1] stood at 4.34 µM; in [2] it was 7.21 µM; in assay [3] it was 10.6 µM; in assay [9], 6.59 µM; in assay [5], 11.4 µM; in [10], 8 µM. Further, the TGI in [8] was 3.14 µM.
Regarding `COC(=O)/C=C(C)/C=C/c1cc(C(C)=O)c(C)o1`, the TGI in [2], in [4], in assay [6], in assay [7] and in [8] was greater than 100 µM in each case.
